From patent publication US20080033039A1, “Combination of ceramide and oxaliplatin for inducing cell death and uses thereof in treating cancer” (priority 2006, published 2008)
Where two headings read alike, the source gives them in different places.

Assays:
[1] = tested on: L3.6 pancreatic tumor implants; conditions: for Mean Body Weight (g) (Time of Death or Sacrifice): at time of death or sacrifice; for anti-tumor response in combination therapy with C6-ceramide: SCID Mice bearing L3.6 pancreatic tumor implants
Description: (§1) In vivo experiments utilized SCID/Beige/Taconic male mice inoculated subcutaneously (S.C.) with 2×10^6 L3.6 pancreatic cells. Chemotherapy dose levels were based on standardized clinical dosing as modified from in vitro data. […] The data recovered included maximum tumor volume, tumor weight, body weight and survival. Histopathology studies were carried out in a separate group of 40 mice treated by the same drug dose levels and autopsied at 4 hours and 24 hours. Tumors were bi-valved and fixed in buffered formalin or frozen in hexane/acetone bath. A major focus was effects on tumor necrosis, apoptosis, mitotic index and caspase 3 index.
SCID/Beige/Taconic male mice, 22-25 g, 6-8 weeks old purchased from Taconic Laboratory (Germantown, N.Y.) were ear tagged and randomized into eight groups of 5 mice each prior to inoculation s.c. with 2×10^6 L3.6 PA cells (46) in a volume 0.1 ml into the internal surface of the right thigh. Treatment was started according to the protocol <0.5 cc> (early 4 days or late 10 days). […] Mice were treated 3 times/week for 4-6 weeks with intraperitoneal injections of chemotherapy at dose levels to be described. Body weight of mice and diameters of tumors were measured every week. Tumor volumes (cm^3) were calculated by formula: V=Higher diameter X (smaller diameter)^2/2 (47-50). At the end of the 6 week observation period surviving mice were euthanized with CO2 inhalation. All the mice were autopsied and tissues were fixed in 10% buffered formalin, embedded in paraffin, and H&E sections of primary tumor, lungs, spleen, liver were examined microscopically. We also analyzed survival rate (%), mean tumor volume (MTV), mean survival time (MST), % mice with primary tumors and final rate of tumor development per survival time (FRTD). The last test was calculated from the MTV and MST: FRTD(cm^3/d)=MTV (cm^3/MST/day).
Our initial dose response studies were done using low dose ceramide 1 mg/kg and oxaliplatin dose levels of 11.0 mg/kg→3.5 mg/kg. […] We next studied the optimum ceramide dose level from 1 mg/kg to 10 mg/kg.

[2] = tested on: L36 Tumors; assay: Short term (4/24 hrs) histopathology of L3.6 tumors: necrosis, mitotic index, apoptosis (H&E), caspase 3 staining; type: in vivo, mice
Description: as §1

[3] = IP 3x/wk from day 4, paclitaxel 3.0, oxaliplatin 2.5, cisplatin 0.5 mg/kg, ceramide 10 mg/kg, volumes calculated in cm^3
[4] = same dosing, 6 week observation
[5] = Oxaliplatin at 2.5 mg/kg with low dose ceramide 1 mg/kg

| SMILES | % Survival @ 3 Weeks [1] | % Surviving at 3 wks ([1]; table T3) | % Survival @ 6 Weeks [1] | % Surviving at 6 wks ([1]; table T3) | Mean Final Tumor Volume [1, 3] | Mean Body Weight (g) (Time of Death or Sacrifice) [1] | Mean Survival Time [1, 4] | Mean Final Tumor Volume ([1]; table T3) | Mean Survival Time ([1]; table T3) | % of Necroses ([2]; 4 hr after treatment) | Apoptosis Index ([2]; 4 hrs) | Apoptosis N/4000 Cells ([2]; 4 hrs) | Caspase 3 Index ([2]; 4 hrs) | Caspase N/4000 Cells ([2]; 4 hrs) | Difference in Caspase Expression Vs. Control ([2]; 4 hrs) | Mitotic Index ([2]; 4 hrs) | Apoptosis Index ([2]; 24 hrs) | Apoptosis N/4000 Cells ([2]; 24 hrs) | Caspase 3 Index ([2]; 24 hrs) | anti-tumor response in combination therapy with C6-ceramide [1] | other results |
| --- | --- | --- | --- | --- | --- | --- | --- | --- | --- | --- | --- | --- | --- | --- | --- | --- | --- | --- | --- | --- | --- |
| CCCCCCCCCCCCC/C=C/[C@@H](O)[C@H](CO)NC(=O)CCCCC [Ceramide, N-hexanoyl-D-sphingosine] | 40% | 40% | 0% | 0% | 1.69 +/− 0.3 | 17.0 g | 20.8 ± 1.1 days | 1.69 +/− .03 | 20.8 +/− 1.1 | 30/NA % | 1.6 | 64 N/4000 Cells | 4.12 | 165 N/4000 Cells | 155% | 0.6% | 1/2 | 46 N/4000 Cells | 4.25 | – | synergy regarding anti-tumor effect ([1]; Ceramide 10 mg/kg with oxaliplatin 2.5 mg/kg): optimum synergy; enhancement of oxaliplatin by ceramide ([1]; Ceramide at 1 mg/kg with oxaliplatin 2.5 mg/kg): only modest effects; animal weight under combination therapy ([1]; mouse, in vivo): preservation of animal weight; Caspase N/4000 Cells ([2]; 24 hrs): 157 N/4000 Cells; Difference in Caspase Expression Vs. Control ([2]; 24 hrs): 148%; Mitotic Index ([2]; 24 hrs): 0/32 |
| N.N.[Cl][Pt][Cl] [Cisplatin] | 60% | 60% | 0% | 0% | 1.83 +/− 0.1 | 16.6 g | 25.6 ± 3.2 days | 1.83 +/− 0.1 | 25.6 +/− 3.2 | – | – | – | – | – | – | – | – | – | – | significantly enhanced | – |
| O=C1[O][Pt]2([NH][C@@H]3CCCC[C@H]3[NH]2)[O]C1=O [Oxaliplatin] | 100% | 100% | 0% | 0% | 1.76 +/− 0.2 | 15.6 g | 27.4 ± 2.2 days | 1.76 +/− 0.2 | 27.4 +/− 2.2 | 30% | 1.35 | 54 N/4000 Cells | 3.5 | 148 N/4000 Cells | 132% | 0.92% | 1.28 | 51 N/4000 Cells | 3/1 | significantly enhanced | activity in initial dose response studies [1, 5]: most active; toxicity in initial dose response studies [1, 5]: less toxic than other dose levels; % of Necroses ([2]; 24 hr after treatment): 10%; Caspase N/4000 Cells ([2]; 24 hrs): 123 N/4000 Cells; Difference in Caspase Expression Vs. Control ([2]; 24 hrs): 121%; Mitotic Index ([2]; 24 hrs): 0/57 |
| CC(=O)O[C@H]1C(=O)[C@@]2(C)[C@H]([C@H](OC(=O)c3ccccc3)[C@]3(O)C[C@H](OC(=O)[C@H](O)[C@@H](NC(=O)c4ccccc4)c4ccccc4)C(C)=C1C3(C)C)[C@]1(OC(C)=O)CO[C@@H]1C[C@@H]2O [Taxol, Paclitaxel] | 60% | 60% | 0% | 0% | 1.83 +/− 0.4 | 17.4 g | 23.0 ± 2.4 days | 1.83 +/− 0.4 | 23.0 +/− 2.4 | 50/NA % | – | 66 N/4000 Cells | – | – | 95%/ ^ | – | – | 110 N/4000 Cells | – | significantly enhanced | – |
